# Reference: patent US20100266589A1, “ADJUVANT CANCER THERAPY” (priority 2009, published 2010)
# Test system: patients with resected stages II and III carcinoma of the colon
# Assay: NSABP C-08 clinical trial: bevacizumab added to mFOLFOX6 as adjuvant therapy
# Assay type: in vivo
# Text: This example concerns analysis of results obtained from colorectal cancer subjects treated in the National Surgical Adjuvant Breast and Bowel Project (NSABP C-08) clinical trial. The primary aim of the study was to determine the clinical benefit of adding bevacizumab to standard chemotherapy for treating colorectal cancer, as measured by disease-free survival (DFS). A secondary goal was to determine if there was clinical benefit in prolonging overall survival. The standard chemotherapy used in this trial was a combination of leucovorin, 5-fluorouracil and oxaliplatin. This trial evaluated the efficacy of bevacizumab (AVASTIN®) as adjuvant therapy for patients with resected stages II and III carcinoma of the colon.
# In the NSABP C-08 trial, the following treatment protocol was used:
# Arm A/Group 1: modified FOLFOX6 (mFOLFOX6: oxaliplatin (85 mg/m^2) with concurrent leucovorin (400 mg/m^2) and 5-FU (400 mg/m^2 IV bolus) on Day 1 and 5-FU (2400 mg/m^2) over 46 hours on Day 1 and Day 2) q 14 days for 12 cycles (6 months);
# Arm B/Group 2: modified FOLFOX6 q 14 days for 12 cycles (6 months) plus bevacizumab administered before oxaliplatin on Day 1 of each chemotherapy cycle (5 mg/kg IV) q 14 days for 1 year.
# The primary endpoint of this trial was duration of disease free survival (DFS). […]
# 2,710 patients were accrued to the study (1,356 to the contol arm and 1,354 to the experimental arm). 18 patients on the control arm and 20 patients on the experimental arm were not evaluated for efficacy due to no follow-up or positive surgical margins. […]
# Time to an event was measured from randomization. All p-values, other than the primary endpoint, were evaluated as significant at the 0.05 level two-sided. […] Hazard ratios (HR) were calculated from Cox models and p-values from time to event were from the log rank test. […] Smooth estimates of the underlying hazard functions were calculated by the method of Muller and Wang (Biometrics 1994 50:61-76). Smooth estimates of the ratio of the underlying hazards were calculated by the method of Gilbert et al. (Biometrics 2002 58:773-80).
substance,measurement,setting,value
Bevacizumab: recombinant humanized anti-VEGF monoclonal antibody; human IgG1 framework with CDRs from murine antibody A.4.6.1,HR,"DFS, 1.25 years after initiation of treatment, vs mFOLFOX6 alone, 95% CI 0.48-0.78, p <0.0001",0.61
same,toxicities or adverse effects (in words),added to chemotherapy vs chemotherapy alone,not associated with any increased toxicities or adverse effects
same,effect on DFS (in words),"added to chemotherapy vs chemotherapy alone, during the first year (active treatment phase)",significantly increased DFS
